Measured values: PubChem BioAssay (NCI)
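Where inhibition never reached the appropriate level, the endpoint shown equals the highest concentration tested. Otherwise, values were interpolated linearly from a five-concentration, 48-hour dose response in 96-well plates. GI50: concentration for 50% inhibition of growth. TGI denotes the concentration required for complete inhibition of growth.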

Key:
Experiment in all cases: inhibition of tumour cell growth, NCI panel, 48 h
K-562 leukemia = tested on: K-562 leukemia
UO-31 renal = tested on: UO-31 renal
MOLT-4 leukemia = tested on: MOLT-4 leukemia
HOP-62 NSCLC = tested on: HOP-62 NSCLC
A498 renal = tested on: A498 renal
SK-MEL-28 melanoma = tested on: SK-MEL-28 melanoma
SNB-75 CNS = tested on: SNB-75 CNS
786-0 renal = tested on: 786-0 renal
SK-MEL-2 melanoma = tested on: SK-MEL-2 melanoma
SK-OV-3 ovarian = tested on: SK-OV-3 ovarian

Structure (SMILES) | TGI (K-562 leukemia) | TGI (UO-31 renal) | TGI (MOLT-4 leukemia) | TGI (HOP-62 NSCLC) | TGI (A498 renal) | TGI (SK-MEL-28 melanoma) | TGI (SNB-75 CNS) | TGI (786-0 renal) | TGI (SK-MEL-2 melanoma) | TGI (SK-OV-3 ovarian) | GI50 (K-562 leukemia) | GI50 (UO-31 renal) | GI50 (HOP-62 NSCLC) | GI50 (A498 renal) | GI50 (SK-OV-3 ovarian) | GI50 (SK-MEL-28 melanoma) | GI50 (SNB-75 CNS) | GI50 (786-0 renal) | GI50 (MOLT-4 leukemia) | GI50 (SK-MEL-2 melanoma)
COc1cc(CCc2ccncc2)cc(OC)c1OC | > 100 µM | > 100 µM | > 100 µM | > 100 µM | > 100 µM | > 100 µM | > 100 µM | > 100 µM | – | – | – | – | – | – | – | – | – | – | – | –
CC/C(C)=C1\CCC(CN(C)C)C1=O (centres undefined) | 79.5 µM | 35.4 µM | 70.9 µM | > 100 µM | 37.5 µM | 38.6 µM | 30.1 µM | 29.3 µM | 32.5 µM | – | – | – | – | – | – | – | – | – | – | –
C[C@H]1CC[C@@H]2[C@@H](C)[C@H]3[C@H](C[C@H]4[C@@H]5CC=C6C[C@@H](O)CC[C@]6(C)[C@H]5CC[C@]34C)N2C1 | – | > 100 µM | > 100 µM | > 100 µM | 41.7 µM | > 100 µM | – | > 100 µM | > 100 µM | > 100 µM | – | – | – | – | – | – | – | – | – | –
CC1OC(=O)N2CCC=CC12 (centres undefined) | > 100 µM | > 100 µM | > 100 µM | – | > 100 µM | > 100 µM | > 100 µM | > 100 µM | > 100 µM | > 100 µM | – | – | – | – | – | – | – | – | – | –
O=C1/C(=C/c2ccc(O)cc2)Oc2ccccc21 | > 100 µM | – | > 100 µM | > 100 µM | > 100 µM | > 100 µM | > 100 µM | > 100 µM | > 100 µM | > 100 µM | – | – | – | – | – | – | – | – | – | –
Cc1c(C2CCSc3ccccc3N2)sc2ccccc12 (centres undefined) | > 100 µM | > 100 µM | > 100 µM | > 100 µM | – | > 100 µM | > 100 µM | > 100 µM | > 100 µM | > 100 µM | – | – | – | – | – | – | – | – | – | –
Cc1ccc([N+]2=NC(c3ccccc3)=NN(c3ccccc3)C2)cc1 | > 100 µM | > 100 µM | > 100 µM | > 100 µM | > 100 µM | > 100 µM | – | > 100 µM | – | – | – | – | – | – | – | – | – | – | – | –
N#C/C(=C1\OC(N)=C(c2ccc(Cl)cc2)C1=O)c1ccc(Cl)cc1 | > 100 µM | 29.8 µM | 50.9 µM | 33.4 µM | 31.1 µM | 67.7 µM | 32.4 µM | 29.4 µM | – | 89.1 µM | – | – | – | – | – | – | – | – | – | –
O/N=C1\C(=C\c2ccc3c(c2)OCCO3)CCCC1C(NO)c1ccc2c(c1)OCCO2 (centres undefined) | – | 68.7 µM | 32.4 µM | 52.3 µM | 60 µM | 32.5 µM | 72.6 µM | > 100 µM | – | > 100 µM | – | – | – | – | – | – | – | – | – | –
N#CC(C#N)C(c1ccccc1)c1ccccc1 | > 100 µM | > 100 µM | > 100 µM | > 100 µM | > 100 µM | > 100 µM | – | > 100 µM | > 100 µM | > 100 µM | – | – | – | – | – | – | – | – | – | –
COc1ccc(/C=C2/CSC/C(=C/c3ccc(OC)c(OC)c3)C2=O)cc1OC | – | 10.6 µM | > 20.9 µM | 8.72 µM | 15.3 µM | 9.76 µM | > 100 µM | 3.56 µM | 7.61 µM | 42.6 µM | – | – | – | – | – | – | – | – | – | –
CCN1CCC(O)(/C=C/c2ccccc2)C(C(=O)/C=C/c2ccccc2)C1 (centres undefined) | – | 21.7 µM | 5.38 µM | 28.4 µM | 18.4 µM | 3.91 µM | 19.2 µM | 3.32 µM | 7.25 µM | 19.7 µM | – | – | – | – | – | – | – | – | – | –
C=Cc1cc(OC)c2c(c1)c(=O)oc1c2cc(OC)c2c(O)ccc(C3OC(C(C)O)C(O)C3O)c21 (centres undefined) | 0.126 µM | 0.0399 µM | – | 0.0595 µM | 0.00468 µM | 0.0525 µM | 0.0515 µM | 0.0192 µM | – | 0.718 µM | 0.00355 µM | 0.00262 µM | 0.00996 µM | 0.00126 µM | 0.0165 µM | 0.0225 µM | 0.0157 µM | 0.00336 µM | – | –
CCSc1nc(N)c2cnn(CC)c2n1 | > 100 µM | > 100 µM | > 100 µM | 80.7 µM | 22.8 µM | > 100 µM | – | > 100 µM | 5.88 µM | > 100 µM | 9.11 µM | 7.24 µM | 20.1 µM | 3.7 µM | 23.9 µM | 20.4 µM | – | 26.5 µM | 3.99 µM | 2.12 µM
C#C[C@@H](CCCC)OC(=O)N[C@H](C)c1ccccc1 | > 100 µM | 65.4 µM | > 100 µM | > 100 µM | – | > 100 µM | 97.5 µM | > 100 µM | 53.1 µM | > 100 µM | – | – | – | – | – | – | – | – | – | –
N/C(CC(=O)NOC(=O)c1ccccc1)=N/OC(=O)c1ccccc1 | 71.7 µM | 53.9 µM | 75.9 µM | > 100 µM | > 100 µM | 99.4 µM | – | > 100 µM | – | 97.3 µM | – | – | – | – | – | – | – | – | – | –
CC(=O)OC1=C(CC(C)(C)C)C(=O)c2ccccc2C1=O | 39.9 µM | > 100 µM | – | > 100 µM | 48.3 µM | > 100 µM | > 100 µM | > 100 µM | 99.4 µM | 66.2 µM | – | – | – | – | – | – | – | – | – | –
CN1CCN(c2nc3cc(F)ccc3n3cccc23)CC1 | > 100 µM | > 100 µM | 81.8 µM | > 100 µM | – | 51.8 µM | 90.7 µM | > 100 µM | – | > 100 µM | – | – | – | – | – | – | – | – | – | –
CC1/C(=N/O)CC(c2ccccc2)N(N=O)C1c1ccccc1 (centres undefined) | > 100 µM | > 100 µM | > 100 µM | > 100 µM | – | > 100 µM | > 100 µM | > 100 µM | > 100 µM | > 100 µM | – | – | – | – | – | – | – | – | – | –
C=CCCC(=O)CC(=O)OCc1ccccc1 | > 100 µM | > 100 µM | > 100 µM | > 100 µM | > 100 µM | – | > 100 µM | > 100 µM | > 100 µM | > 100 µM | – | – | – | – | – | – | – | – | – | –
COC1CC(n2cc(F)c(N)nc2=O)OC1CO (centres undefined) | > 100 µM | > 100 µM | > 100 µM | > 100 µM | – | > 100 µM | > 100 µM | > 100 µM | > 100 µM | > 100 µM | – | – | – | – | – | – | – | – | – | –
CC1=CC(=O)N2C(OC[C@@H]2c2ccccc2)O1 (some centres undefined) | > 100 µM | > 100 µM | > 100 µM | > 100 µM | – | > 100 µM | > 100 µM | > 100 µM | > 100 µM | > 100 µM | – | – | – | – | – | – | – | – | – | –
O=[N+]([O-])c1ccc2nc(-c3ccc(Cl)cc3)[nH]c2c1 | – | 59.7 µM | > 100 µM | 40.1 µM | – | > 100 µM | 68.5 µM | > 100 µM | – | 60.4 µM | – | – | – | – | – | – | – | – | – | –
